# Measured values reported in patent publication US12721844B2, “Chronic kidney disease treatment or prevention method” (Japan Tobacco Inc., priority 2019, dated 2026).
# Tests used:
# [1] = target: T1, human SGLT1 (Homo sapiens, UniProt P13866); assay: Assessment of SGLT1 inhibitory activity (14C-AMG uptake in human SGLT1-stably-expressing CHO-K1 cell line); type: cell-based
# T1 sequence (P13866 1-664): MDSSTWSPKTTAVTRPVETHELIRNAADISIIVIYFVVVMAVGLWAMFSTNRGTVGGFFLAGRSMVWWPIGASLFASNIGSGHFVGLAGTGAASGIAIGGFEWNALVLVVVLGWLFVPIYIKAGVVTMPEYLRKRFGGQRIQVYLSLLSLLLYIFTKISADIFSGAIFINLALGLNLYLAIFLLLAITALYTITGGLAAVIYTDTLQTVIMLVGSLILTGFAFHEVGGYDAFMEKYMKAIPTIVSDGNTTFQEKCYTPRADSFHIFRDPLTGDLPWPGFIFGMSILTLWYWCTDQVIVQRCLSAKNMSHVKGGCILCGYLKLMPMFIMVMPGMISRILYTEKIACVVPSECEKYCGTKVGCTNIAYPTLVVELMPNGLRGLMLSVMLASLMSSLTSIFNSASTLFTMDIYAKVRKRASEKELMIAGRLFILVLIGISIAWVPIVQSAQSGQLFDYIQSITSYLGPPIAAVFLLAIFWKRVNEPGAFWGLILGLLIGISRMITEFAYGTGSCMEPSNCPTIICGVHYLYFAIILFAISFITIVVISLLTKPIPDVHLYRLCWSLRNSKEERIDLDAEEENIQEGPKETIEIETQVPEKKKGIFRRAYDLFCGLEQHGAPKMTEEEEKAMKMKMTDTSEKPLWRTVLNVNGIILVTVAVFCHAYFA
# Description: Assessment of SGLT1 Inhibitory Activity
# SGLT1 inhibitory activities of test compounds (IC50 values) were calculated based on the amount of intracellular uptake of labelled […] (^14C-AMG) transported by SGLT1.
# 1) Formation of Human SGLT1-Expressing Plasmid
# A DNA fragment containing human SGLT1 was amplified by PCR (Polymerase Chain Reaction) using pCMV6-hSGLT1 (OriGene) as a template. In the human SGLT1, NheI recognition and cleavage sequence was added to the upstream of Kozac consensus sequence derived from a vector, and a stop codon, TAG, and SalI recognition and cleavage sequence were added to the immediate downstream of the protein-translating region of human SGLT1. […]
# Human SGLT1-stably-expressing cell lines were seeded at 5×10^4 cells/well on BioCoat™ Poly-D-Lysine 96 well plate with Lid (Becton, Dickinson and Company) and cultured at 37° C. under 5% CO2 overnight. […] In the assessment for the uptake ability of ^14C-AMG, the total amount of the cell lysate was transferred to OptiPlate 96 (Perkin-E1mer) with 100 μL/well of MicroScint-40 (Perkin-E1mer) dispensed and ^14C of CPM was measured with TOPCOUNT NXT (Perkin-E1mer).
# Data was calculated by deducting the average value of CPM for blank well from the average value of CPM for each well treated. […]
# [2] = test system: Salmonella typhimurium (TA98, TA1537, TA100, and TA1535) and Escherichia coli (WP2 uvrA); assay: Ames test (reverse mutation test), all bacterial tester strains; type: cell-based; conditions: any of the bacterial tester strains, with and/or without S9 mix
# Description: (§1) Ames Test (Reverse Mutation Test)
# (§2) Two plates per treatment were used.
# [3] = test system: Salmonella typhimurium TA1535; assay: Ames test (reverse mutation test), TA1535; type: cell-based
# Description: as §1, §2
# [4] = test system: glucose-loaded SD rats; assay: OGTT (Oral Glucose Tolerance Test), Test Example 2; type: in vivo, rat; conditions: 1, 3, or 10 mg/kg oral, 16 hours before glucose load; compared to vehicle
# Description: (§3) OGTT (Oral Glucose Tolerance Test)
# Vehicle (0.5% methylcellulose solution) or Compound 1 (1, 3, or 10 mg/kg) suspended in a 0.5% methylcellulose solution was orally administered in 5 mL/kg to an about 4-hour-fasted male SD rat (8-week old, Nihon Charles River K.K., 6 cases for each group). […] Statistical analyses were based on Steel's multiple test. The significance level was two-sided 5%.
# [5] = test system: glucose-loaded SD rats; assay: OGTT (Oral Glucose Tolerance Test), Test Example 3; type: in vivo, rat; conditions: 3 mg/kg oral, 16 hours before glucose load; compared to vehicle
# Description: as §3
# Vehicle (0.5% methylcellulose solution), or Compound 1, Compound A, or Compound B (3 mg/kg each) suspended in a 0.5% methylcellulose solution was orally administered in 5 mL/kg to an about 4-hour-fasted male SD rat (8-week old, Nihon Charles River K.K., 5 cases for each group).
# Statistical analyses were based on Dunnett's multiple group test. The significance level was two-sided 5%.
# [6] = test system: male SDT fatty rats; assay: Assessment of renal protective effect (GFR in SDT fatty rats), Test Example 5; type: in vivo, rat; conditions: 2 mg/kg oral once a day, 16 weeks; vs vehicle group of SDT fatty rats
# Description: Assessment of Renal Protective Effect
# Vehicle (0.5% methyl cellulose solution), Compound 1 (2 mg/kg), or dapagliflozin (0.3 mg/kg) was orally administered once a day to male SDT fatty rats (7-week old, CLEA Japan, Inc.); and as a normal control, vehicle was orally administered once a day to male SD rats (7-week old, CLEA Japan, Inc.). 16 Weeks after the administration, GFR (mL/min/100 g B.W.) was measured with a transdermal GFR monitor (MediBeacon). For statistical analysis, Student's test was conducted between the vehicle-administered group of SD rats and the vehicle-administered group of SDT fatty rats. Dunnett's multiple test was conducted for the Compound 1 and dapagliflozin groups to the vehicle group of SDT fatty rats. The significance level was two-sided 5%.
# [7] = test system: 5/6-kidney-removed rats (male Wistar); assay: Assessment of renal protective effect 2 (5/6-kidney-removed rats), Test Example 6; type: in vivo, rat; conditions: 2 mg/kg/day mixed with feed, vs vehicle-administered group
# Description: Assessment of Renal Protective Effect 2
# 7-Week old male Wistar rats (Japan SLC, Inc.) were treated by removing 2/3 of the left kidney under isoflurane anesthesia and then removing the whole right kidney one week later to prepare 5/6-kidney-removed rats. Compound 1 (2 mg/kg/day) mixed with feed was orally administered to the rats from the age of 9 weeks. As a normal control, male Wistar rats at the same age were set as a sham group. […] For statistical analysis, Student's test was conducted between the vehicle-administered group and the Compound 1-administered group. […] For statistical analysis, Student's test or Aspin-Welch was conducted.
# [8] = with S9 mix, dose 1667 μg/plate
# [9] = with S9 mix, dose 5000 μg/plate
# [10] = without S9 mix, dose 6.9 μg/plate
# [11] = without S9 mix, dose 21 μg/plate
# [12] = without S9 mix, dose 62 μg/plate
# [13] = without S9 mix, dose 185 μg/plate
# [14] = without S9 mix, dose 556 μg/plate
# [15] = without S9 mix, dose 1667 μg/plate
# [16] = without S9 mix, dose 5000 μg/plate
Compound,potential to induce reverse mutations [2],"Number of revertant colonies TA1535 ([3]; with S9 mix, dose 6.9 μg/plate)","Number of revertant colonies TA1535 ([3]; with S9 mix, dose 21 μg/plate)","Number of revertant colonies TA1535 ([3]; with S9 mix, dose 62 μg/plate)","Number of revertant colonies TA1535 ([3]; with S9 mix, dose 185 μg/plate)","Number of revertant colonies TA1535 ([3]; with S9 mix, dose 556 μg/plate)","Number of revertant colonies TA1535 [3, 8]","Number of revertant colonies TA1535 [3, 9]","Number of revertant colonies TA1535 [3, 10]","Number of revertant colonies TA1535 [3, 11]","Number of revertant colonies TA1535 [3, 12]","Number of revertant colonies TA1535 [3, 13]","Number of revertant colonies TA1535 [3, 14]","Number of revertant colonies TA1535 [3, 15]","Number of revertant colonies TA1535 [3, 16]",other results
C[C@H]1C(=O)NC[C@@H]1C(=O)Nc1cc(-c2cccc(OC(F)(F)F)c2)n(-c2ccc(Cl)nn2)n1 [Example 10],–,–,–,–,–,–,–,–,–,–,–,–,–,–,–,"inhibition at 0.3 µM ([1]; CHO-K1, at 0.3 μM, read-out: hSGLT1 inhibition): 45%"
Nc1cc(-c2cc(F)cc(OC(F)(F)F)c2)n(-c2cncc(C(F)(F)F)c2)n1 [Metabolite 5],did not show potential to induce reverse mutations,10,11,10,9,7,4,2,9,11,4,7,6,3,4,–
CC(C)(C)Oc1cc(F)cc(-c2cc(N)nn2C(F)(F)F)c1 [Metabolite 1],did not show potential to induce reverse mutations,7,6,8,5,4,4,2,9,8,8,0,0,0,0,"Number of revertant colonies TA1535 ([3]; with S9 mix, dose 2.3 μg/plate): 13; Number of revertant colonies TA1535 ([3]; without S9 mix, dose 2.3 μg/plate): 6"
"C[C@H]1C(=O)NC[C@@H]1C(=O)Nc1cc(-c2cc(F)cc(OC(C)(C)C)c2)n(C(F)(F)F)n1 [Example 1, (3R,4R)-N-(5-(3-(tert-butoxy)-5-fluorophenyl)-1-(trifluoromethyl)-1H-pyrazol-3-yl)-4-methyl-5-oxopyrrolidine-3-carboxamide]",–,–,–,–,–,–,–,–,–,–,–,–,–,–,–,"SGLT1 inhibitory activity ([1]; qualitative statement): confirmed to have the SGLT1 inhibitory activity; blood glucose level after the glucose load (Δ AUC to 120 minutes, % of Vehicle) [4]: significantly reduced the blood glucose level; blood glucose level after the glucose load (Δ AUC to 120 minutes, % of Vehicle) [5]: significantly reduced the blood glucose level; GFR (mL/min/100 g B.W.) [6]: inhibited the increase of GFR; protein quantities in the urine (mg/mgCr) ([7]; 16, 30, and 69 days): lower than those of the vehicle-administered group; creatinine clearance (mL/min) [7]: significantly higher than that of the vehicle-administered group; urea nitrogen levels (mg/dL) [7]: significantly lower than those of the vehicle-administered group"
Nc1cc(-c2cc(F)cc(OC(F)(F)F)c2)n(-c2cncc(F)c2)n1 [Metabolite 3],did not show potential to induce reverse mutations,8,9,11,9,4,3,1,9,11,10,8,8,0,0,–
